From patent US20030229125A1, “Herbicidal substituted pyridines, their preparation, and their use as herbicides and plant growth regulators” (priority 2001, published 2003)

Key:
[1] = system: Sinapis alba, Echinochloa crus-galli, Lolium multiflorum, Chrysanthemum segetum, Setaria spp., Abutilon theophrastic, Amaranthus retroflexus, Panicum miliaceum …; assay: Post-emergence effect on weeds (greenhouse pot test, visual scoring); type: in vivo, mono- and dicotyledonous weeds; details: application rate of 1 kg or less of active substance per hectare; treated at three-leaf stage; scored visually after about 3 to 4 weeks
Procedure: Seeds or rhizome pieces of mono- and dicotyledonous weeds were placed in sandy loam soil in plastic pots, covered with soil and grown in a greenhouse under good growth conditions. Three weeks after sowing, the test plants were treated at the three-leaf stage. The compounds according to the invention, formulated as wettable powders or emulsion concentrates, were sprayed, at various dosages, onto the green parts of the plants at an application rate of 600 to 800 l of water/ha (converted). After the test plants had remained in the greenhouse for about 3 to 4 weeks under optimum growth conditions, the effect of the preparations was scored visually by comparison with untreated controls. The agents according to the invention also have good herbicidal activity post-emergence against a broad spectrum of economically important weed grasses and broad-leaved weeds.

[2] = system: Sinapis alba, Chrysanthemum segetum, Avena sativa, Stellaria media, Echinochloa crus-galli, Lolium multiflorum, Setaria spp., Abutilon theophrasti, Amaranthus …; assay: Pre-emergence effect on weeds (greenhouse pot test, visual scoring); type: in vivo, mono- and dicotyledonous weed plants; details: application rate of 1 kg or less of active substance per hectare; visually scored after 3 to 4 weeks vs untreated controls
Text: Seeds or rhizome pieces of mono- and dicotyledonous weed plants were placed in sandy loam soil in plastic pots and covered with soil. The compounds according to the invention, formulated in the form of wettable powders or emulsion concentrates, were then applied to the soil cover in the form of aqueous suspensions or emulsions at an application rate of 600 to 800 l of water/ha (converted), in various dosages. After the treatment, the pots were placed in a greenhouse and kept under good growth conditions for the weeds. After the test plants had emerged, the damage to the plants or the negative effect on the emergence was visually scored after a test period of 3 to 4 weeks by comparison with untreated controls. As shown by the test results, the compounds according to the invention have good herbicidal pre-emergence activity against a broad spectrum of week grasses and broad-leaved weeds.

Q: How did the “herbicidal activity post-emergence against weed plants” value [1] turn out when `CCN(Cc1cccc(Oc2cc(C(F)(F)F)nn2C)n1)S(C)(=O)=O` [Example 4] was run?
A: Its value is “very good herbicidal activity”.

Q: And the “herbicidal activity pre-emergence against weed plants” value [2]?
A: The value was “very good herbicidal activity”.
